This is an account of results in paper PMC6149774, “Inhibition by Commercial Aminoglycosides of Human Connexin Hemichannels Expressed in Bacteria” (Molecules : A Journal of Synthetic Chemistry and Natural …, 2017).

For one assay, the target named is T1, human Cx26 hemichannels (Homo sapiens, UniProt P29033).
T1 construct: Details of the human Cx26, Cx43, and Cx46 DNAs used to transform LB2003 cells have been published; expressed in transfected cells; host or cells: E. coli LB2003 (with pREP4), IPTG-induced from pQE60
Put plainly: Cx26-dependent growth complementation assay in LB2003 cells. Type of assay: cell-based. The following applies: for Reduction of Cx26-dependent growth complementation: 100 μM aminoglycoside.

For another assay, the target named is T2, human Cx43 hemichannels (Homo sapiens, UniProt P17302).
T2 construct: Details of the human Cx26, Cx43, and Cx46 DNAs used to transform LB2003 cells have been published; expressed in transfected cells; host or cells: E. coli LB2003 (with pREP4), IPTG-induced from pQE60
Briefly: Cx43-dependent growth complementation assay in LB2003 cells. In kind it is cell-based. As to conditions: for IC50: LB2003-pREP4 cells, NLM + 8 mM KCl, 10 µM IPTG, OD600 after 18 h, mean ± SEM.

The target in a further assay is T3, human Cx46 hemichannels (Homo sapiens, UniProt Q9Y6H8).
T3 construct: Details of the human Cx26, Cx43, and Cx46 DNAs used to transform LB2003 cells have been published; expressed in transfected cells; host or cells: E. coli LB2003 (with pREP4), IPTG-induced from pQE60
Briefly: Cx46-dependent growth complementation assay in LB2003 cells. Type of assay: cell-based. As to conditions: for IC50: LB2003-pREP4 cells, NLM + 16 mM KCl, 10 µM IPTG, OD600 after 18 h, mean ± SEM.

A further assay deals with LB2003 cells. Briefly: Antibiotic effect on growth of LB2003 cells in KLM. Type of assay: cell-based, Escherichia coli. As to conditions: 100 μM, cells grown in KLM.
The subject of assay [1] is Cx26, Cx43, and Cx46 hemichannels. Further details: method as in PMID 25585383, PMID 27789753. The following applies: cited from earlier work.
For the next assay, the system named is HCs. The arrangement: method as in PMID 26769242, PMID 25237294. The following applies: mammalian cells and frog oocytes; cited from earlier work.
The subject of a further assay is GJCs. Further details: method as in PMID 26769242, PMID 25237294. As to conditions: cited from earlier work.
For assay [2], the system named is Cx26, Cx43, and Cx46 hemichannels. Briefly: Connexin-dependent growth complementation assay, all connexin groups together. Type of assay: cell-based, human. The following applies: 100 μM aminoglycoside, AG-resistant LB2003 cells with pREP4.
Description: The absence of antibiotic effect in the LB2003-pREP4 cells was assayed at an AG concentration of 100 μM in cells grown in KLM (Figure 5). […] We then tested all AGs in Figure 4 for inhibition of connexin-dependent growth in AG-resistant LB2003 cells transformed with the pREP4 plasmid.
Basically, freshly prepared competent LB2003 containing the pREP4 plasmid were transformed with pQE60 (empty plasmid; negative control), pQE-Cx26 (human Cx26 DNA into pQE60), pQE-Cx43 (human Cx43 into pQE60) or pQE-Cx46 (human Cx46 into pQE60). After growing overnight in Luria-Bertani (LB) medium (BD, Franklin Lakes, NJ, USA) supplemented with 100 mM KCl (to allow growth) and 0.4 mg/mL ampicillin, the cells were washed four times with NLM, to remove residual potassium from the LB medium, and were resuspended in complementation growth medium to an OD600 of 0.2. NLM contained 46 mM Na2HPO4, 23 mM NaH2PO4, 8 mM (NH4)2SO4, 0.4 mM MgSO4, 0.012 mM FeSO4, 1 mM sodium citrate, 44 mM glucose, and 0.006 mM thiamine hydrochloride, pH 7.0. KLM was identical to NLM except for the equimolar replacement of Na^+ with K^+. For growth-complementation by Cx26, Cx43, and Cx46 in low-[K^+] medium we used NLM + 4 mM KCl, NLM + 8 mM KCl, and NLM + 16 mM KCl, respectively. […] OD600 was measured after 18 h manually for the 24-well plates or in a plate reader for the 96-well plates (Falcon 353072, Corning Inc., Corning, NY, USA). […]
[3] abbreviates: LB2003-pREP4 cells, NLM + 4 mM KCl, 0.5 mM IPTG, OD600 after 18 h, mean ± SEM.

Some results are limits rather than exact numbers.

T2 sequence (P17302 whole entry): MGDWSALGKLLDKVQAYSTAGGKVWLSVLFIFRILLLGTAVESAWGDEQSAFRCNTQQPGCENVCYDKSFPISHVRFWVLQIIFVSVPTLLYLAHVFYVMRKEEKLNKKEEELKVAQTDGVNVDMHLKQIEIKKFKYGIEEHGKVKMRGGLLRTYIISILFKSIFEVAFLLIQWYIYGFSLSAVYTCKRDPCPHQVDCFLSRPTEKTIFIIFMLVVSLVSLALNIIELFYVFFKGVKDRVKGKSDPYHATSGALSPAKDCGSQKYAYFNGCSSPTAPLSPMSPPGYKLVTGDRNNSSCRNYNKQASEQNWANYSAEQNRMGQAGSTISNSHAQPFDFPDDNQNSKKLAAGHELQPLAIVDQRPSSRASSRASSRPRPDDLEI
Description for human Cx26 hemichannels: (§1) We then tested all AGs in Figure 4 for inhibition of connexin-dependent growth in AG-resistant LB2003 cells transformed with the pREP4 plasmid.
(§2) Basically, freshly prepared competent LB2003 containing the pREP4 plasmid were transformed with pQE60 (empty plasmid; negative control), pQE-Cx26 (human Cx26 DNA into pQE60), pQE-Cx43 (human Cx43 into pQE60) or pQE-Cx46 (human Cx46 into pQE60). After growing overnight in Luria-Bertani (LB) medium (BD, Franklin Lakes, NJ, USA) supplemented with 100 mM KCl (to allow growth) and 0.4 mg/mL ampicillin, the cells were washed four times with NLM, to remove residual potassium from the LB medium, and were resuspended in complementation growth medium to an OD600 of 0.2. NLM contained 46 mM Na2HPO4, 23 mM NaH2PO4, 8 mM (NH4)2SO4, 0.4 mM MgSO4, 0.012 mM FeSO4, 1 mM sodium citrate, 44 mM glucose, and 0.006 mM thiamine hydrochloride, pH 7.0. KLM was identical to NLM except for the equimolar replacement of Na^+ with K^+. For growth-complementation by Cx26, Cx43, and Cx46 in low-[K^+] medium we used NLM + 4 mM KCl, NLM + 8 mM KCl, and NLM + 16 mM KCl, respectively. Expression of Cx26 was induced with 0.5 mM IPTG (GoldBio, St. Louis, MO, USA) at the time of dilution to OD600 = 0.2. For growth-complementation by Cx43 and Cx46, we used 10 µM IPTG. Transformed cells in the appropriate growth medium were seeded in 24- or 96-well plates, and the plates were incubated at 30 °C, with shaking at 250 and 500 rpm, respectively. OD600 was measured after 18 h manually for the 24-well plates or in a plate reader for the 96-well plates (Falcon 353072, Corning Inc., Corning, NY, USA). The initial OD600 = 0.2 was subtracted for growth calculations.
Description for human Cx43 hemichannels: as §1, §2
Excerpt for human Cx46 hemichannels: The first task is accomplished through the use of defined media. We use Na^+ liquid medium (NLM) and K^+ liquid medium (KLM). NLM is a K^+-free phosphate-buffered medium (see Materials and Methods), whereas KLM is a K^+-rich medium that has the composition of NLM, except for the equimolar replacement of Na^+ with K^+. […] By mixing NLM and KLM it is easy to find a range of low [K^+]s where LB2003 cells expressing connexins grow. To optimize the signal-to-noise ratio we identified the “low” [K^+] at which the connexin-expressing cells grow to the highest absorbance measured at 600 nm (OD600), and then tested the dependence of the growth on the concentration of the expression inducer, isopropyl-β-D-thiogalactopyranoside (IPTG). This is important because the optimal signal-to-noise ratio depends on a balance between sufficient permeability to allow K^+ uptake through HCs and too many active HCs, which inhibits growth as a result of depolarization of the inner membrane and/or unbalanced shifts of ions and metabolites. In the case of Cx26, optimal growth is achieved with 4 mM K^+ and 500 μM IPTG, but for Cx43, 8 mM K^+ and 10 μM IPTG work best. From initial trials, we identified 16 mM K^+ and 10 μM IPTG as the best conditions for the Cx46 growth complementation assay.
This aminoglycoside 3'-phosphotransferase inactivates the AGs in Figure 4 by phosphorylation, allowing us to test for inhibition of connexin-dependent growth complementation without interference by the AG antibiotic effect. The absence of antibiotic effect in the LB2003-pREP4 cells was assayed at an AG concentration of 100 μM in cells grown in KLM (Figure 5). […] We then tested all AGs in Figure 4 for inhibition of connexin-dependent growth in AG-resistant LB2003 cells transformed with the pREP4 plasmid.
Briefly, pQE60 plasmids containing the connexin DNAs and plasmid pREP4 were used for transformation of E. coli LB2003 cells (generously provided by Dr. E.P. Bakker, Osnabrück University, Osnabrück, Germany). The pQE60 plasmids confer resistance to ampicillin, and pREP4 confers resistance to the AGs used in this study. LB2003 cells are missing three key K^+ transporters (Δtrk, Δkup, and Δkdp strains) and as a result cannot grow in low-[K^+] media [22, 23, 25]. Transformed LB2003 cells were stored as a 25% glycerol stock at −80 °C.
Basically, freshly prepared competent LB2003 containing the pREP4 plasmid were transformed with pQE60 (empty plasmid; negative control), pQE-Cx26 (human Cx26 DNA into pQE60), pQE-Cx43 (human Cx43 into pQE60) or pQE-Cx46 (human Cx46 into pQE60).

Compound `CN[C@@H]1[C@@H](O)[C@@H](O[C@@H]2[C@@H](O)[C@H](O[C@H]3O[C@H]([C@@H](C)O)[C@@H](O)[C@H](O)[C@H]3N)[C@@H](N)C[C@H]2N)OC[C@]1(C)O` [Geneticin, geneticin] yielded a 50% inhibitory concentration (IC50) against human Cx26 hemichannels (IC50 of Cx26-dependent complementation (Figure 6), Figure 6A, fit of Hill's equation) of 0.436 µM.
Take `NC[C@@H]1O[C@H](O[C@H]2[C@@H](O)[C@H](O[C@@H]3[C@@H](O)[C@H](N)C[C@H](N)[C@H]3O[C@H]3O[C@H](CO)[C@@H](O)[C@H](O)[C@H]3N)O[C@@H]2CO)[C@H](N)[C@@H](O)[C@@H]1O` [Paromomycin, paromomycin]: the “Reduction of Cx26-dependent growth complementation” value on human Cx26 hemichannels is given as ~ 80%. Besides, the IC50 on human Cx26 hemichannels (setting [3]) is 42 ± 9 µM; at human Cx43 hemichannels, 201 ± 17 µM; on human Cx46 hemichannels it was more than 200 µM. Besides, at human Cx46 hemichannels (200 μM aminoglycoside), the “Inhibition of Cx46-dependent growth complementation” value worked out at 37 ± 4%.
Regarding kanamycin A, the “Growth of AG-sensitive LB2003 cells (no pREP4)” value with LB2003 cells is listed as “prevented growth”. In addition, the “Effect on HCs in LB2003 cell growth assay” value in assay [1] is listed as “inhibited HCs”.
Consider `CNC(C)C1CCC(N)C(OC2C(N)CC(N)C(OC3OCC(C)(O)C(NC)C3O)C2O)O1` (stereo not drawn) [gentamicin], for which the “Effect on HCs” value with HCs was “inhibits HCs reversibly”. Moreover, the “Effect on GJCs” value with GJCs is on record as “does not affect GJCs”.
In the case of `NC[C@H]1O[C@H](O[C@H]2[C@H](O)[C@@H](O[C@H]3O[C@H](CO)[C@@H](O)[C@H](N)[C@H]3O)[C@H](N)C[C@@H]2N)[C@H](N)[C@@H](O)[C@@H]1O` [Kanamycin B, kanamycin B], the IC50 at human Cx26 hemichannels (setting [3]) was 3.6 ± 0.9 µM; on human Cx43 hemichannels it was 24 ± 2 µM; at human Cx46 hemichannels it was 175 ± 9 µM. Further, the “IC50 ratio relative to Cx26 for Cx43” value at human Cx43 hemichannels (isoform selectivity, Cx43 IC50 / Cx26 IC50) was ~ 7. Further, the “IC50 ratio relative to Cx26 for Cx46” value on human Cx46 hemichannels (isoform selectivity, Cx46 IC50 / Cx26 IC50) was ~ 50.
Consider `NC[C@H]1O[C@H](O[C@H]2[C@H](O[C@@H]3O[C@H](CO)[C@@H](O)[C@H]3O)[C@@H](O)[C@H](N)C[C@@H]2N)[C@H](N)[C@@H](O)[C@@H]1O` [ribostamycin], for which the “Reduction of Cx26-dependent growth complementation” value on human Cx26 hemichannels came out at 35 ± 3%. Also, the “Effect on Cx43-dependent growth complementation (inhibition)” value at human Cx43 hemichannels (100 μM aminoglycoside) is −8 ± 5%. For the same compound, in assay [2], the “Inhibition of connexin-dependent growth” value is “only a marginal effect”.
